This note sets out measurements from BindingDB's records for doi:10.1021/jm030810w (Glaxosmithkline, 2003).

A word on the Ki: it is the dissociation constant of the complex between target and ligand, obtained from inhibition or displacement. Read a low Ki as a stronger hold on the target.

The assay deals with Cytomegalovirus protease/assemblin (Human cytomegalovirus). Kind of assay: Potency against human cytomegalovirus protease in HCMV pNA assay.
`CC(C)c1ccc(NC(=O)N2CCC[C@H]2C(=O)N2CC[C@H]3[C@H]2[C@H](C)C(=O)N3c2nc3c(Cl)cccc3s2)cc1` [(S)-2-[(3aS,6S,6aR)-4-(4-Chloro-benzothiazol-2-yl)-6-methyl-5-oxo-hexahydro-pyrrolo[3,2-b]pyrrole-1-carbonyl]-pyrrolidine-1-carboxylic acid (4-isopropyl-phenyl)-amide]: the inhibition constant (Ki) came out at 0.041 µM.

Molecule `COc1ccc2sc(N3C(=O)[C@@H](C)[C@@H]4[C@@H]3CCN4C(=O)[C@@H]3CCCN3C(=O)Nc3ccc(C(C)C)cc3)nc2c1` [(S)-2-[(3aS,6S,6aR)-4-(5-Methoxy-benzothiazol-2-yl)-6-methyl-5-oxo-hexahydro-pyrrolo[3,2-b]pyrrole-1-carbonyl]-pyrrolidine-1-carboxylic acid (4-isopropyl-phenyl)-amide] gave a Ki of 0.022 µM.

For `CC(C)c1ccc(NC(=O)N2CCC[C@H]2C(=O)N2CC[C@H]3[C@H]2[C@H](C)C(=O)N3c2nc3ccc(F)cc3s2)cc1` [(S)-2-[(3aS,6S,6aR)-4-(6-Fluoro-benzothiazol-2-yl)-6-methyl-5-oxo-hexahydro-pyrrolo[3,2-b]pyrrole-1-carbonyl]-pyrrolidine-1-carboxylic acid (4-isopropyl-phenyl)-amide], affinity was put at a Ki of 0.017 µM.

Consider `CC(C)c1ccc(NC(=O)N2CCC[C@H]2C(=O)N2CC[C@H]3[C@H]2[C@H](C)C(=O)N3c2nc3cc(S(=O)(=O)C(F)F)ccc3s2)cc1` [(S)-2-{(3aS,6S,6aR)-4-[5-(Difluoro-methanesulfonyl)-benzothiazol-2-yl]-6-methyl-5-oxo-hexahydro-pyrrolo[3,2-b]pyrrole-1-carbonyl}-pyrrolidine-1-carboxylic acid (4-isopropyl-phenyl)-amide], for which the affinity, expressed as Ki, was 0.01 µM.
